{
  "source": "paper PMC8582824",
  "about": "“Targeting DDX3X Helicase Activity with BA103 Shows Promising Therapeutic Effects in Preclinical Glioblastoma Models” (Cancers, 2021)",
  "key": {"[1]": {"experiment": "Human liver microsomal metabolic stability", "format": "in vitro ADME", "settings": "37 °C, 60 min", "method": "(§1) Preliminary in vitro ADME analysis was performed to early evaluate the pharmacokinetic (PK) profile of our compounds (Figure 8). Aqueous solubility was calculated by LC-MS-MS analysis. An aliquot of 1 mg of compound was stirred for 24 h at 27 °C in 1 mL of water. The mixture was filtered, and the quantity of solubilized compound was determined. Passive permeability was determined using parallel artificial membrane permeability assay (PAMPA). Microsomal metabolic stability was determined by LC-UV-MS analysis by incubating compounds with human liver microsomes at 37 °C for 60 min (for details, see the Supporting Information). […]\nMicrosomal Stability Assay.\nEach compound in DMSO solution was incubated at 37 °C for 60 min in 125 mM phosphate buffer (pH 7.4), 5 μL of human liver microsomal protein (0.2 mg mL-1), in the presence of a NADPH-generating system at a final […]\nreaction was stopped by cooling on ice and adding 1.0 mL of acetonitrile. The reaction mixtures were then centrifuged, and the parent drug and metabolites were subsequently determined by LC-UV-MS.\n(§2) Chromatographic analysis was performed with an Agilent 1100 LC/MSD VL system (G1946C) (Agilent Technologies, Palo Alto, CA) constituted by a vacuum solvent degassing unit, a binary high-pressure gradient pump, an 1100 series UV detector, and an 1100 MSD model VL benchtop mass spectrometer.\n(§3) Chromatographic separation was obtained using a Varian Polaris C18-A column (150-4.6 mm, 5 μm particle size) and gradient elution: eluent A being ACN and eluent B consisting of water. The analysis started with 2% […]\n(§4) flow rate was 0.8 mL min-1 and injection volume was 20 μL.\n(§5) The Agilent 1100 series mass spectra detection (MSD) single-quadrupole instrument was equipped with the orthogonal spray API-ES (Agilent Technologies, Palo Alto, CA). Nitrogen was used as nebulizing and drying gas. The pressure of the nebulizing gas, the flow of the drying gas, the capillary voltage, the fragmentor voltage, and the vaporization temperature were set at 40 psi, 9 L/min, 3000 V, 70 V, and 350 °C, respectively.\nUV detection was monitored at 280 nm. The LC-ESI-MS determination was performed by operating the MSD in the positive ion mode. Spectra were acquired over the scan range m/z 100-1500 using a step size of 0.1 u.\nThe percentage of not metabolized compound was calculated by comparison with reference solutions"}, "U251 cells": {"system": "U251 cells", "experiment": "MTS cytotoxicity assay, U251 cells", "format": "cell-based", "settings": "72 h", "method": "For CellTiter 96® Aqueous One Solution Cell Proliferation Assay (MTS) (Promega, Madison, WI, USA), cells were seeded at 5 × 10^3 per well in 96-well plates in quadruplicate together a control with no cells to evaluate the background. After 24 h, the culture medium was removed, and fresh medium containing increasing concentrations of chemical compounds was added to cells. […] DMSO was the vehicle used for dilution of the compounds, and its final concentration on cells was less than 0.2%. Medium-only containing wells were included as controls. Cells were incubated with compounds at different concentrations for 72 h, then, 20 µL of CellTiter 96® AQueous One Solution Reagent was added into each well. After 3 h at 37 °C in a humidified, 5% CO2 atmosphere, the absorbance at 492 nm was recorded using an EZREAD400 (Biochrom, Cambridge, United Kingdom) plate reader. The average 490 nm absorbance from the “no cell” control wells was subtracted from all other values to yield background-corrected absorbance. Dose–response curves and CC50 values have been calculated by plotting the absorbance data as a function of inhibitor concentrations and fitting the data by least-squares nonlinear regression, according to the method of Marquardt–Levenberg, with the computer program GraphPad Prism 6.0.\nCells were incubated with a scalar concentration of DDX3X inhibitors, and after 72 h of treatment, cell viability was assessed by cytotoxicity assay. […] Compounds 4, 6, and BA103 were also evaluated against BJ primary fibroblasts; compound 4 has a cytotoxicity value of 84.7 μM; on the contrary, compounds 6 and BA103 were not toxic up to 200 μM concentration. This further excluded a possible nonspecific cytotoxic effect. […] Due to its interesting profile, compound BA103 was further tested against additional pulmonary (A549), breast (MDA-MB-231), colorectal (HCT-116), osteosarcoma (U2OS), rhabdomyosarcoma (RD18), GBM (DBTRG, U87, and U251) and medulloblastoma (DAOY) cancer cell lines.\nFigure 5 Cytotoxicity of selected compounds. Compounds were assayed on DU-145, PC3, HepG2, Huh-7, HN6, U251, and U87 cell lines. The concentration of the compound, which reduced the number of viable cells by 50% (CC50), was determined by dose–response curve, and the mean CC50 value for each cell line was calculated by triplicate assays (raw data from U87 and U251 cells with dose–response curves used for the calculation of CC50 in Table S1 and Figure S2).\nTable S1: Raw data of optical absorbance at 490 nm from MTS assay in U87 and U251 cells. Tables contain\nmeans with SD of at least 5 different values that were used for preparation of figure 5."}, "Water solubility assay": {"experiment": "Water solubility assay", "format": "physicochemical", "settings": "27 °C, thermodynamic from solid, read-out: LogS (aqueous solubility) (converted)", "method": "as §1\nEach solid compound (1 mg) was added to 1 mL of water. The samples were shaked in a shaker bath at room temperature for 24-36 h. The suspensions were filtered through a 0.45 μm nylon filter (Acrodisc), and the solubilized compound determined by LC-MS-MS assay. For each compound the determination was […]\nFor the quantification was used an LC-MS system consisted of a Varian apparatus (Varian Inc) including a vacuum solvent degassing unit, two pumps (212-LC), a Triple Quadrupole MSD (Mod. 320-LC) mass spectrometer with ES interface and Varian MS Workstation System Control Vers. 6.9 software.\nChromatographic separation was obtained using a Pursuit C18 column (50 x 2.0 mm) (Varian) with 3 μm particle size and gradient elution: eluent A being ACN and eluent B consisting of water. […] The flow rate was 0.2 mL min-1 and injection volume was 5 μL. The instrument operated in positive mode and parameters were: detector 1850 V, drying gas pressure 25.0 psi, desolvation temperature 300.0 °C, nebulizing gas 40.0 psi, needle 5000 V and shield 600 V. Nitrogen was used as nebulizer gas and drying gas. […]\nas §2, §3, §4\nas §5, with “respectively. […]” for “respectively.”\nSpectra were acquired over the scan range m/z 100-1500 using a step size of 0.1 u. […]"}},
  "data": [
    {"compound": "CCCCc1cn(-c2ccc(NC(=O)Nc3ccccc3C(F)(F)F)cc2)nn1", "note": "[BA103, 1-(4-(4-Butyl-1H-1,2,3-triazol-1-yl)phenyl)-3-(2-(trifluoromethyl)phenyl)urea]", "values": [
      {"measurement": "HLM Stability ± SD (Human Liver Microsomal Metabolic Stability)", "setting": "[1]", "value": "97.0 ± 0.5", "unit": "%"},
      {"measurement": "mean absorbance at 490 nm (MTS)", "setting": "U251 cells; U251, 0,01 uM", "value": "2,166"},
      {"measurement": "mean absorbance at 490 nm (MTS)", "setting": "U251 cells; U251, 0,1 uM", "value": "2,070"},
      {"measurement": "mean absorbance at 490 nm (MTS)", "setting": "U251 cells; U251, 1 uM", "value": "1,364"},
      {"measurement": "mean absorbance at 490 nm (MTS)", "setting": "U251 cells; U251, 10 uM", "value": "0,842"},
      {"measurement": "mean absorbance at 490 nm (MTS)", "setting": "U251 cells; U251, 100 uM", "value": "0,604"}
    ]},
    {"compound": "CCCCn1nnc(-c2ccc(NC(=O)Nc3ccccc3C(F)(F)F)cc2)n1", "note": "[Compound 6, 1-(4-(2-Butyl-2H-tetrazol-5-yl)phenyl)-3-(2-(trifluoromethyl)phenyl)urea]", "values": [
      {"measurement": "solubility at 24 h", "setting": "Water solubility assay", "value": "< 0.0251", "unit": "µM"},
      {"measurement": "HLM Stability ± SD (Human Liver Microsomal Metabolic Stability)", "setting": "[1]", "value": "90.32 ± 0.7", "unit": "%"},
      {"measurement": "mean absorbance at 490 nm (MTS)", "setting": "U251 cells; U251, 0,01 uM", "value": "1,431"},
      {"measurement": "mean absorbance at 490 nm (MTS)", "setting": "U251 cells; U251, 0,1 uM", "value": "1,763"},
      {"measurement": "mean absorbance at 490 nm (MTS)", "setting": "U251 cells; U251, 1 uM", "value": "2,172"},
      {"measurement": "mean absorbance at 490 nm (MTS)", "setting": "U251 cells; U251, 10 uM", "value": "1,348"},
      {"measurement": "mean absorbance at 490 nm (MTS)", "setting": "U251 cells; U251, 100 uM", "value": "0,361"}
    ]},
    {"compound": "CCCCc1cn(-c2ccc(NC(=O)Nc3ccccc3C)cc2)nn1", "note": "[Compound 1, reference compound]", "values": [
      {"measurement": "HLM Stability ± SD (Human Liver Microsomal Metabolic Stability)", "setting": "[1]", "value": "99.0 ± 0.6", "unit": "%"},
      {"measurement": "mean absorbance at 490 nm (MTS)", "setting": "U251 cells; U251, 0,01 uM", "value": "2,020"},
      {"measurement": "mean absorbance at 490 nm (MTS)", "setting": "U251 cells; U251, 0,1 uM", "value": "1,998"},
      {"measurement": "mean absorbance at 490 nm (MTS)", "setting": "U251 cells; U251, 1 uM", "value": "1,459"},
      {"measurement": "mean absorbance at 490 nm (MTS)", "setting": "U251 cells; U251, 10 uM", "value": "1,107"},
      {"measurement": "mean absorbance at 490 nm (MTS)", "setting": "U251 cells; U251, 100 uM", "value": "0,474"}
    ]},
    {"compound": "CC(C)CCc1cn(-c2ccc(NC(=O)Nc3cccc4cnccc34)cn2)nn1", "note": "[Compound 10, 1-(6-(4-Isopentyl-1H-1,2,3-triazol-1-yl)pyridin-3-yl)-3-(isoquinolin-5-yl)urea]", "values": [
      {"measurement": "solubility at 24 h", "setting": "Water solubility assay", "value": "< 0.0363", "unit": "µM"},
      {"measurement": "HLM Stability ± SD (Human Liver Microsomal Metabolic Stability)", "setting": "[1]", "value": "91.31 ± 0.1", "unit": "%"},
      {"measurement": "mean absorbance at 490 nm (MTS)", "setting": "U251 cells; U251, 0,01 uM", "value": "1,904"},
      {"measurement": "mean absorbance at 490 nm (MTS)", "setting": "U251 cells; U251, 0,1 uM", "value": "2,003"},
      {"measurement": "mean absorbance at 490 nm (MTS)", "setting": "U251 cells; U251, 1 uM", "value": "1,581"},
      {"measurement": "mean absorbance at 490 nm (MTS)", "setting": "U251 cells; U251, 10 uM", "value": "1,667"},
      {"measurement": "mean absorbance at 490 nm (MTS)", "setting": "U251 cells; U251, 100 uM", "value": "0,809"}
    ]},
    {"compound": "CCCCc1nnc(-c2ccc(NC(=O)Nc3ccccc3C(F)(F)F)cc2)[nH]1", "note": "[Compound 4, 1-(4-(5-Butyl-4H-1,2,4-triazol-3-yl)phenyl)-3-(2-(trifluoromethyl)phenyl)urea]", "values": [
      {"measurement": "solubility at 24 h", "setting": "Water solubility assay", "value": 0.275, "unit": "µM"},
      {"measurement": "HLM Stability ± SD (Human Liver Microsomal Metabolic Stability)", "setting": "[1]", "value": "97.9 ± 0.3", "unit": "%"},
      {"measurement": "mean absorbance at 490 nm (MTS)", "setting": "U251 cells; U251, 0,01 uM", "value": "1,499"},
      {"measurement": "mean absorbance at 490 nm (MTS)", "setting": "U251 cells; U251, 0,1 uM", "value": "1,513"},
      {"measurement": "mean absorbance at 490 nm (MTS)", "setting": "U251 cells; U251, 1 uM", "value": "1,627"},
      {"measurement": "mean absorbance at 490 nm (MTS)", "setting": "U251 cells; U251, 10 uM", "value": "1,482"},
      {"measurement": "mean absorbance at 490 nm (MTS)", "setting": "U251 cells; U251, 100 uM", "value": "0,502"}
    ]},
    {"compound": "CCCCc1nnc(-c2ccc(NC(=O)Nc3ccccc3C(F)(F)F)cc2)o1", "note": "[Compound 3, 1-(4-(5-Butyl-1,3,4-oxadiazol-2-yl)phenyl)-3-(2-(trifluoromethyl)phenyl)urea]", "values": [
      {"measurement": "solubility at 24 h", "setting": "Water solubility assay", "value": "< 0.0251", "unit": "µM"},
      {"measurement": "HLM Stability ± SD (Human Liver Microsomal Metabolic Stability)", "setting": "[1]", "value": "88.9 ± 0.9", "unit": "%"},
      {"measurement": "mean absorbance at 490 nm (MTS)", "setting": "U251 cells; U251, 0,01 uM", "value": "1,298"},
      {"measurement": "mean absorbance at 490 nm (MTS)", "setting": "U251 cells; U251, 0,1 uM", "value": "1,025"},
      {"measurement": "mean absorbance at 490 nm (MTS)", "setting": "U251 cells; U251, 1 uM", "value": "1,098"},
      {"measurement": "mean absorbance at 490 nm (MTS)", "setting": "U251 cells; U251, 10 uM", "value": "0,593"},
      {"measurement": "mean absorbance at 490 nm (MTS)", "setting": "U251 cells; U251, 100 uM", "value": "0,217"}
    ]}
  ]
}
